Assay results: patent US10537611B2, “Methods of treating lung cancer” (Five Prime Therapeutics, Inc., priority 2011, dated 2020)

Test: Serum phosphate in rats
Format: in vivo, rat
Settings: 50 mg/kg/day oral gavage, at 24 hour or 1 week of daily dosing
Procedure: In the first experiment, Sprague Dawley rats (Charles River Labs; N=5/group) were dosed with vehicle, 10, 50 or 200 mg/kg/qwk of FGFR1-ECD.339-Fc for four weekly doses and plasma concentrations of FGFR1-ECD.339-Fc were determined throughout the study by an ELISA based detection method.
In the second experiment, Sprague Dawley rats (Charles River Labs; N=5/group) were administered the FGFR kinase inhibitor PD173074 (Chemdea, Ridgewood, N.J.; 50 mg/kg/day) or vehicle control by oral gavage for 7 days; or were administered FGFR1-ECD.339-Fc (200 mg/kg) or appropriate vehicle weekly by intravenous administration. Blood samples were collected at the time points indicated and serum phosphate was determined at 24 and 168 hours post-initiation of dosing (Idexx laboratories, Westbrook, Mass.).

- plasma phosphate levels: significantly elevated
SMILES: CCN(CC)CCCCNc1ncc2cc(-c3cc(OC)cc(OC)c3)c(NC(=O)NC(C)(C)C)nc2n1 [PD173043]
